Legend:
Conditions in all cases: 48 h
[1] = system: SEM cells; test: cell viability relative to DMSO control; higher = less cytotoxic
Outline: (§1)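 In 1536-well plates, 5 μl of leukemia cells were seeded per well: 500 cells/well for NOMO1 or SEM and 1000 cells/well for P12-Ichikawa. Each line had first been adapted for at least four passages in each medium. Library compounds in DMSO were pin-dosed at 11 threefold concentrations between 47 μM and 0.79 nM, and CellTiter-Glo One luminescence was read after 48 h at 37°C. Viability is a per-plate percentage relative to DMSO wells, with cell-free wells as background.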

[2] = system: P12-Ichikawa; test: as above
Outline: as §1

[3] = system: NOMO1; test: as above
Outline: as §1

[4] = system: SEM cells; test: AUC of viability dose-response curve (% viability x log10 dose units); higher = less sensitive
Outline: (§2)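 Leukemia cells adapted to each medium were seeded in 1536-well plates (500 or 1000 cells/well) and given library compounds in DMSO for 48 h at 37°C. The 11 threefold doses spanned 47 μM to 0.79 nM, and CellTiter-Glo One luminescence was normalised per plate to DMSO and cell-free wells before four-parameter log-logistic fitting on log10 dose. Area under the curve was integrated with the trapezoidal rule, scaling curves above full viability and removing curves that failed quality control.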

[5] = system: P12-Ichikawa; test: as above
Outline: as §2

[6] = system: NOMO1; test: as above
Outline: as §2

CC(/C=C/C(=O)NO)=C\[C@@H](C)C(=O)c1ccc(N(C)C)cc1
cell viability [%]
Conditions	[1]	[2]	[3]
HPLM + 10% dialyzed FBS, 0.000781 µM	108	111	112
HPLM + 10% dialyzed FBS, 0.00234 µM	126	115	104
HPLM + 10% dialyzed FBS, 0.00702 µM	109	114	107
HPLM + 10% dialyzed FBS, 0.0211 µM	100	107	104
HPLM + 10% dialyzed FBS, 0.0632 µM	111	109	134
HPLM + 10% dialyzed FBS, 0.19 µM	101	114	122
HPLM + 10% dialyzed FBS, 0.569 µM	59	90.5	108
HPLM + 10% dialyzed FBS, 1.71 µM	8.01	48.4	57
HPLM + 10% dialyzed FBS, 5.12 µM	3.01	3.82	5.04
HPLM + 10% dialyzed FBS, 15.4 µM	2.86	1.6	4.16
HPLM + 10% dialyzed FBS, 46.1 µM	2.07	0.388	2.85
RPMI 5 mM glucose + 10% FBS, 0.000781 µM	112	116	89.8
RPMI 5 mM glucose + 10% FBS, 0.00234 µM	117	116	100
RPMI 5 mM glucose + 10% FBS, 0.00702 µM	115	119	109
RPMI 5 mM glucose + 10% FBS, 0.0211 µM	97.7	114	98.8
RPMI 5 mM glucose + 10% FBS, 0.0632 µM	115	119	93.9
RPMI 5 mM glucose + 10% FBS, 0.19 µM	115	111	109
RPMI 5 mM glucose + 10% FBS, 0.569 µM	66.2	98.3	89.2
RPMI 5 mM glucose + 10% FBS, 1.71 µM	5.17	28.3	59.5
RPMI 5 mM glucose + 10% FBS, 5.12 µM	3.1	2.14	5.72
RPMI 5 mM glucose + 10% FBS, 15.4 µM	2.52	1.05	3.5
RPMI 5 mM glucose + 10% FBS, 46.1 µM	1.53	0.409	2.44
RPMI 5 mM glucose + 10% dialyzed FBS, 0.000781 µM	102	107	111
RPMI 5 mM glucose + 10% dialyzed FBS, 0.00234 µM	112	113	120
RPMI 5 mM glucose + 10% dialyzed FBS, 0.00702 µM	116	109	122
RPMI 5 mM glucose + 10% dialyzed FBS, 0.0211 µM	105	116	114
RPMI 5 mM glucose + 10% dialyzed FBS, 0.0632 µM	106	110	108
RPMI 5 mM glucose + 10% dialyzed FBS, 0.19 µM	102	107	115
RPMI 5 mM glucose + 10% dialyzed FBS, 0.569 µM	56.2	91.8	95.1
RPMI 5 mM glucose + 10% dialyzed FBS, 1.71 µM	8.19	29.8	65
RPMI 5 mM glucose + 10% dialyzed FBS, 5.12 µM	3.94	2.07	5.26
RPMI 5 mM glucose + 10% dialyzed FBS, 15.4 µM	3.72	1.68	5
RPMI 5 mM glucose + 10% dialyzed FBS, 46.1 µM	1.86	0.629	2.94

AUC of viability dose-response curve
Conditions	[4]	[5]	[6]
HPLM + 10% dialyzed FBS	290	325	337
RPMI 5 mM glucose + 10% FBS	295	315	339
RPMI 5 mM glucose + 10% dialyzed FBS	292	316	336

CCCCC(C=O)NC(=O)C(CC(C)C)NC(=O)OCc1ccccc1 (stereo unspecified)
cell viability [%]
Conditions	[1]	[2]	[3]
HPLM + 10% dialyzed FBS, 0.000781 µM	93.8	90.9	104
HPLM + 10% dialyzed FBS, 0.00234 µM	99.8	94.3	98.5
HPLM + 10% dialyzed FBS, 0.00702 µM	90.6	95.8	86.4
HPLM + 10% dialyzed FBS, 0.0211 µM	105	90.7	94.7
HPLM + 10% dialyzed FBS, 0.0632 µM	98.5	95.6	85.5
HPLM + 10% dialyzed FBS, 0.19 µM	58	91.8	83
HPLM + 10% dialyzed FBS, 0.569 µM	99.1	91.1	92.2
HPLM + 10% dialyzed FBS, 1.71 µM	102	85.7	82.7
HPLM + 10% dialyzed FBS, 5.12 µM	92.1	80.6	89.4
HPLM + 10% dialyzed FBS, 15.4 µM	81.1	81	82
HPLM + 10% dialyzed FBS, 46.1 µM	57	70.5	55.9
RPMI 5 mM glucose + 10% FBS, 0.000781 µM	110	88	91.8
RPMI 5 mM glucose + 10% FBS, 0.00234 µM	87.2	91.3	93.3
RPMI 5 mM glucose + 10% FBS, 0.00702 µM	94.2	90.3	90.1
RPMI 5 mM glucose + 10% FBS, 0.0211 µM	102	82.1	102
RPMI 5 mM glucose + 10% FBS, 0.0632 µM	110	91.6	93.7
RPMI 5 mM glucose + 10% FBS, 0.19 µM	88.7	84.2	88.9
RPMI 5 mM glucose + 10% FBS, 0.569 µM	91.8	80.6	85.4
RPMI 5 mM glucose + 10% FBS, 1.71 µM	90.9	82.3	72.7
RPMI 5 mM glucose + 10% FBS, 5.12 µM	84.3	78.3	80.2
RPMI 5 mM glucose + 10% FBS, 15.4 µM	85.1	73.7	68.6
RPMI 5 mM glucose + 10% FBS, 46.1 µM	52.6	51.7	77.6
RPMI 5 mM glucose + 10% dialyzed FBS, 0.000781 µM	93.8	86.1	103
RPMI 5 mM glucose + 10% dialyzed FBS, 0.00234 µM	82.8	85.4	93.3
RPMI 5 mM glucose + 10% dialyzed FBS, 0.00702 µM	78.1	83	95.1
RPMI 5 mM glucose + 10% dialyzed FBS, 0.0211 µM	89.1	86.9	97.4
RPMI 5 mM glucose + 10% dialyzed FBS, 0.0632 µM	86.2	79.6	101
RPMI 5 mM glucose + 10% dialyzed FBS, 0.19 µM	66.2	84.8	83.9
RPMI 5 mM glucose + 10% dialyzed FBS, 0.569 µM	96.7	81.3	90.4
RPMI 5 mM glucose + 10% dialyzed FBS, 1.71 µM	94.5	76.7	82.2
RPMI 5 mM glucose + 10% dialyzed FBS, 5.12 µM	84.8	71.3	77.6
RPMI 5 mM glucose + 10% dialyzed FBS, 15.4 µM	71.1	70.6	80.9
RPMI 5 mM glucose + 10% dialyzed FBS, 46.1 µM	47.9	53.7	70.1

AUC of viability dose-response curve
Conditions	[4]	[5]	[6]
HPLM + 10% dialyzed FBS	430	422	409
RPMI 5 mM glucose + 10% FBS	439	393	410
RPMI 5 mM glucose + 10% dialyzed FBS	393	377	424

Source: the supplement of paper PMC11451515
